Experimental data: PubChem BioAssay (NCI)
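Assay format: 96-well plates, 48-hour exposure. Here, GI50 denotes the concentration required for 50% inhibition of growth. At the TGI there is no net growth.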

Key:
Test in all cases: NCI tumour cell line growth inhibition, 48 h
ACHN renal = tested on: ACHN renal
M14 melanoma = tested on: M14 melanoma
HCC-2998 colon = tested on: HCC-2998 colon
SK-MEL-5 melanoma = tested on: SK-MEL-5 melanoma
DU-145 prostate = tested on: DU-145 prostate
PC-3 prostate = tested on: PC-3 prostate
MOLT-4 leukemia = tested on: MOLT-4 leukemia
HOP-92 NSCLC = tested on: HOP-92 NSCLC
MDA-MB-231 breast = tested on: MDA-MB-231 breast
SR leukemia = tested on: SR leukemia

SMILES	TGI (ACHN renal)	TGI (M14 melanoma)	TGI (HCC-2998 colon)	TGI (SK-MEL-5 melanoma)	TGI (DU-145 prostate)	TGI (PC-3 prostate)	TGI (MOLT-4 leukemia)	TGI (HOP-92 NSCLC)	TGI (MDA-MB-231 breast)	TGI (SR leukemia)	GI50 (ACHN renal)	GI50 (M14 melanoma)	GI50 (SR leukemia)	GI50 (SK-MEL-5 melanoma)	GI50 (MDA-MB-231 breast)	GI50 (HCC-2998 colon)	GI50 (DU-145 prostate)	GI50 (PC-3 prostate)	GI50 (HOP-92 NSCLC)	GI50 (MOLT-4 leukemia)
O=C(O)C1C(C(=O)Nc2ccc3c(c2)Cc2ccccc2-3)C2(Cl)C(Cl)=C(Cl)C1(Cl)C2(Cl)Cl (stereo not drawn)	> 100 µM	42.7 µM	34.8 µM	27.5 µM	> 100 µM	30 µM	26.1 µM	57.3 µM	41.6 µM	–	–	–	–	–	–	–	–	–	–	–
CCn1cc(/C=C/C(C)c2cn(CC)c(=O)[nH]c2=O)c(=O)[nH]c1=O (stereo not drawn)	> 100 µM	> 100 µM	> 100 µM	> 100 µM	–	–	> 100 µM	> 100 µM	–	–	–	–	–	–	–	–	–	–	–	–
CCOC(=O)C(=O)Nc1ccc(C)cc1C	> 100 µM	> 100 µM	> 100 µM	> 100 µM	–	–	> 100 µM	> 100 µM	–	> 100 µM	–	–	–	–	–	–	–	–	–	–
C=C/C=C(\NC(=O)C(Cl)(Cl)Cl)[Si](C)(C)C	> 100 µM	> 100 µM	> 100 µM	> 100 µM	–	–	> 100 µM	> 100 µM	–	> 100 µM	–	–	–	–	–	–	–	–	–	–
COc1cc2c(cc1OCCOS(C)(=O)=O)N=C[C@@H]1CCCN1C2=O	29.5 µM	34.6 µM	> 100 µM	42.2 µM	> 100 µM	–	65.8 µM	50.6 µM	39.3 µM	32.9 µM	16 µM	18.7 µM	11.1 µM	16.9 µM	16.5 µM	–	–	–	–	–
COc1cc2c(cc1OC)-c1cc3cc(OC)c(OC)cc3n1CC2	85.9 µM	> 100 µM	> 100 µM	–	–	–	> 100 µM	> 100 µM	–	> 100 µM	–	–	–	–	–	–	–	–	–	–
O=S(O)CCCCCSSCCCCSSCCCCCS(=O)O	> 100 µM	> 100 µM	–	> 100 µM	–	–	> 100 µM	> 100 µM	–	–	–	–	–	–	–	–	–	–	–	–
O=C(CC1(O)C(=O)Nc2ccccc21)c1ccccc1Cl (stereo not drawn)	> 100 µM	> 100 µM	–	> 100 µM	–	–	> 100 µM	> 100 µM	–	–	–	–	–	–	–	–	–	–	–	–
CC1=CC(=O)CCC2(C)C1CC[C@@H]2OC=O (stereo partly drawn)	> 100 µM	> 100 µM	> 100 µM	> 100 µM	–	–	> 100 µM	> 100 µM	–	> 100 µM	–	–	–	–	–	–	–	–	–	–
CS(=O)CCCCCN=C=S (stereo not drawn)	16.5 µM	14.6 µM	28.8 µM	17.9 µM	10.6 µM	25.6 µM	–	9.52 µM	17.4 µM	–	4.07 µM	3.3 µM	–	5.3 µM	4.76 µM	13.9 µM	2.81 µM	11.6 µM	3.55 µM	–
Cc1ccc(-c2nc(SCC(=O)O)n[nH]2)cc1	> 100 µM	> 100 µM	> 100 µM	> 100 µM	–	–	> 100 µM	> 100 µM	–	> 100 µM	–	–	–	–	–	–	–	–	–	–
COc1cc(C(=O)/C=C/c2cc(C(=O)c3cc(OC)c(OC)c(OC)c3)ccc2OC)ccc1N	4.49 µM	3.06 µM	2.64 µM	2.18 µM	4.59 µM	7.4 µM	> 100 µM	> 100 µM	> 100 µM	–	1.08 µM	0.752 µM	–	1.02 µM	0.713 µM	1.27 µM	1.03 µM	1.8 µM	2.94 µM	0.616 µM
CN(C)c1ccc(N=Cc2c([O-])ccc3ccccc23)cc1.[C-]#[O+].[C-]#[O+].[Ir]	43.7 µM	46.1 µM	35.3 µM	31.2 µM	–	–	95 µM	37.3 µM	–	44.1 µM	18.8 µM	20.7 µM	15.4 µM	16.4 µM	–	18.8 µM	–	–	17.2 µM	15.4 µM
CCOC(=O)c1sc2nc3sc(N=Nc4ccc(Cl)cc4)c(O)n3c(=S)c2c1C	54.3 µM	> 100 µM	–	35.8 µM	> 100 µM	> 100 µM	> 100 µM	45.8 µM	–	> 100 µM	16.5 µM	33.2 µM	> 100 µM	17.1 µM	–	–	31.2 µM	21.3 µM	7.47 µM	> 100 µM
CC/C=C1\N=C(c2ccc(Cl)cc2)OC1=O	> 100 µM	> 100 µM	> 100 µM	–	–	–	> 100 µM	> 100 µM	–	–	–	–	–	–	–	–	–	–	–	–
CC(C)(C)NN=C1C(C)(C)C(=NNC(C)(C)C)C1(C)C	> 100 µM	> 100 µM	> 100 µM	> 100 µM	–	–	> 100 µM	> 100 µM	–	> 100 µM	–	–	–	–	–	–	–	–	–	–
Cn1c2c(c3ccccc31)C1CCCCC1C1C(=O)NC(=O)C21 (stereo not drawn)	> 100 µM	> 100 µM	> 100 µM	> 100 µM	–	–	67.5 µM	–	–	> 100 µM	–	–	–	–	–	–	–	–	–	–
Cc1cc2cc3cc(C)c(N(C)C)cc3nc2cc1N(C)C	> 100 µM	18.4 µM	14.6 µM	4.71 µM	25.8 µM	39.9 µM	> 100 µM	8.36 µM	7.59 µM	–	4.76 µM	3.76 µM	–	1.73 µM	2.33 µM	3.61 µM	3.46 µM	2.4 µM	1.83 µM	3.29 µM
C[C@]12CCC[C@H](Cl)C1(O)C[C@H](C(=O)O)CC2 (stereo partly drawn)	> 100 µM	> 100 µM	> 100 µM	> 100 µM	–	–	> 100 µM	> 100 µM	–	> 100 µM	–	–	–	–	–	–	–	–	–	–
CCOC(=O)C(=O)Nc1c(F)cc(F)cc1Br	> 100 µM	> 100 µM	> 100 µM	> 100 µM	–	–	> 100 µM	> 100 µM	–	> 100 µM	–	–	–	–	–	–	–	–	–	–
CC(=O)c1ccc(NC(=O)CSc2nnc(-c3cc(-c4ccc(C)cc4)nc4ccccc34)o2)cc1	–	> 100 µM	> 100 µM	> 100 µM	> 100 µM	> 100 µM	> 100 µM	6.3 µM	5.47 µM	–	–	5.65 µM	–	3.42 µM	2.3 µM	> 100 µM	4.52 µM	4.36 µM	2.59 µM	3.31 µM
CN1C2(c3ccccc3)c3c(-c4ccccc4)sc(-c4ccccc4)c3C1(c1ccccc1)C1C(=O)N(c3ccccc3)C(=O)C12 (stereo not drawn)	> 100 µM	> 100 µM	> 100 µM	> 100 µM	–	–	–	> 100 µM	–	–	–	–	–	–	–	–	–	–	–	–
